What was measured:
[1] = system: HGT-1 cells; assay: Protein levels by western blotting in HGT-1 cells; format: cell-based, human
Method: (§1) The cells were harvested, washed in PBS and lysed in ripa buffer (50 mM Tris HCl pH7.4, 150 mM NaCl, 0.5% Sodium deoxycholate, 0.1% SDS, 1% NP40, 1 mM EDTA, 1 mM PMSF) containing protease inhibitor cocktail (Roche, Meylan, France) and phosphatase inhibitor (Active motif) for 10 min at 4° C. Sixty micrograms of proteins were boiled in Laemmli sample buffer (Bio-Rad) for 5 min, separated by SDS-PAGE using 12% or 15% polyacrylamide gels and blotted onto polyvinyl difluoride membranes (GE Healthcare). Non specific binding sites were blocked for 1 h at room temperature by 5% (wt/v) fat-free milk before overnight incubation at 4° C. with specific rabbit (or mouse for cyclin B1) anti-human antibodies: aurora kinase A and B, procaspase-3, PARP, Bcl-2, Bax and survivin (Cell Signaling Technology-Ozyme, Saint Quentin en Yvelines, France), p27, p21, Mcl-1, cyclin B1 (Santa Cruz biotechnology, Tebu-bio, le Perray en Yvelines, France), cyclin D1 (NeoMarkers, Thermo Fisher Scientific, Illkirch, France) or HSC70 (Abcam, Paris, France) as a loading control. Anti-phospho-ERK1/2 was a mouse monoclonal antibody against a synthetic phosphopeptide (residues around threonine 202 and […] of human p44 MAPK, Cell Signaling Technology, Ozyme, France). Polyclonal antibodies against ERK1 (rabbit, sc-94) or ERK2 (rabbit, sc-154) and phospho-MEK1/2 were from Santa Cruz Biotechnology (Tebu-bio). Rabbit anti-phospho-JNK (Cell Signaling, Saint-Quentin en Yvelines, France) and rabbit polyclonal antibody anti-P38 (Santa Cruz Biotechnology, Tebu-bio). Primary antibodies were detected with a horseradish peroxidase-conjugated IgGs (GE Healthcare, Orsay, France).

[2] = system: docetaxel-resistant HGT-1 cells (D5)
Method: Selection of the docetaxel-resistant cell populations was performed with mass cultures grown in complete medium supplemented with 5 nM docetaxel. […] Cells were constantly grown in presence of 5 nM docetaxel, excepted for the cell passage that preceded the experiments that involved drug treatments. […]

[3] = system: HGT-1 human gastric cancer cells; assay: Apoptosis by Hoechst 33342 staining in HGT-1 cells; format: cell-based; conditions: for apoptosis: HGT-1
Method: HGT-1 human gastric cancer cells were grown at 37° C. under a humidified atmosphere of 5% CO2 in DMEM (Dulbecco's modified Eagle's medium) (Lonza, Saint Beauzire, France), containing 4.5 g/L glucose and supplemented with 5% fetal bovine serum without antibiotics (Gibco-Invitrogen, Cergy Pontoise, France).
(§2) Apoptosis was determined by Hoechst 33342 (10 μg/ml in PBS) staining of the cells for 15 min at 37° C. and fluorescence microscopy analysis of 300 cells per condition, from replicate cultures.

[4] = system: HGT-1 cells; assay: mRNA levels by quantitative real-time RT-PCR in HGT-1 cells; format: cell-based, human; conditions: 48 h
Method: Total RNA was isolated using Trizol (Invitrogen, Cergy-Pontoise, france) and the RNA samples were used for the first-strand cDNA synthesis with the High Capacity cDNA Reverse Transcription kit and random hexamer primers (Applied biosystems). Quantitative real-time RT-PCR was performed using the Power SYBR Green Kit (Applied biosystems) according to the manufacturer's instructions. mRNA levels were analyzed in duplicate, normalized against GAPDH or phospho-protein P0 as an internal control gene. The results are expressed as the relative gene expression using the ΔΔCt method (Livak and Schmittgen 2001). The primer sequences and reaction conditions will be provided upon request.

[5] = system: D5 cells; assay: Protein levels by western blotting in D5 cells; format: cell-based, human; conditions: 2.5 μM lovastatin, 72 h
Method: as §1, with “Polyclonal antibodies against ERK1 (rabbit, sc-94) or ERK2 (rabbit, sc-154) and phospho-MEK1/2 were from Santa Cruz Biotechnology (Tebu-bio). Rabbit anti-phospho-JNK (Cell Signaling, Saint-Quentin en Yvelines, France) and rabbit polyclonal antibody anti-P38 (Santa Cruz Biotechnology, Tebu-bio).” left out

[6] = system: D5 cells; assay: p21 mRNA by RT-PCR in D5 cells; format: cell-based, human; conditions: data not shown
Method: Selection of the docetaxel-resistant cell populations was performed with mass cultures grown in complete medium supplemented with 5 nM docetaxel. […] Cells were constantly grown in presence of 5 nM docetaxel, excepted for the cell passage that preceded the experiments that involved drug treatments.

[7] = system: lovastatin-resistant HGT-1-derived cells; assay: Apoptosis in lovastatin-resistant HGT-1-derived cells; format: cell-based, human; conditions: data not shown
Method: as §2

CC[C@H](C)C(=O)O[C@H]1C[C@@H](C)C=C2C=C[C@H](C)[C@H](CC[C@@H]3C[C@@H](O)CC(=O)O3)[C@H]21 [lovastatin]
phospho-MEK1/2, phospho-ERK1/2 and p38 MAP kinase levels [1]: decreased | phosphorylated jun kinase (JNK) [1]: induced | Bax protein ([1]; 48 h): slightly suppressed | Caspase-3 and PARP cleavage ([1]; 48 h): cleaved | Mcl-1 protein ([1]; 48 h): suppressed | cyclin B1, D1, aurora kinase A, B and survivin protein levels ([1]; 48 h): decrease in all proteins | apoptosis ([2]; 2.5 or 5 μM lovastatin, 48 or 72 h, D5 cells): up to 55% | apoptosis ([3]; 12.5 μM lovastatin, 48 h): 35% | apoptosis ([3]; 2.5 or 5 μM lovastatin, 48 or 72 h): up to 32% | p27 expression ([4]; 12.5 μM lovastatin alone or with 5 or 10 nM docetaxel): slightly reduced | p21 mRNA induction ([4]; 12.5 μM lovastatin): up to 4 fold | LDL-R, HMG-CoA reductase, FPPS and FAS mRNA levels [4]: induced | aurora kinase B and survivin mRNA [4]: repressed | cyclin B1, cyclin D1 and aurora kinase A mRNA [4]: reduced expression of all transcripts | over-expressed survivin and cyclin B1 proteins in D5 cells [5]: fully suppressed | p27 protein in D5 cells [5]: induced | induction of p21 mRNA in D5 cells compared with HGT-1 [6]: stronger

CC(=O)O[C@@]12CO[C@@H]1C[C@H](O)[C@@]1(C)C(=O)[C@H](O)C3=C(C)[C@@H](OC(=O)[C@H](O)[C@@H](NC(=O)OC(C)(C)C)c4ccccc4)C[C@@](O)([C@@H](OC(=O)c4ccccc4)[C@H]21)C3(C)C [docetaxel, Docetaxel]
phospho-MEK1/2, phospho-ERK1/2 and p38 MAP kinase levels [1]: had no effect | phosphorylated jun kinase (JNK) [1]: had no effect | Bax protein ([1]; 48 h): remained unchanged | Caspase-3 and PARP cleavage ([1]; 48 h): cleaved | Mcl-1 protein ([1]; 48 h): suppressed | cyclin B1, D1, aurora kinase A, B and survivin protein levels ([1]; 48 h): decrease in these proteins | survivin protein levels ([1]; 48 h): strongly induced | cyclin B1 protein ([1]; docetaxel, 48 h): slightly increased | apoptosis compared with HGT-1 parental cells [7]: higher level | apoptosis ([3]; 5 nM docetaxel, 48 h): 15% | apoptosis ([3]; 10 nM docetaxel, 48 h): 27% | p21 expression ([4]; 5 or 10 nM docetaxel): induced | aurora kinase B and survivin mRNA [4]: weakly induced

CC[C@]1(O)C[C@@H]2CN(CCc3c([nH]c4ccccc34)[C@@](C(=O)OC)(c3cc4c(cc3OC)N(C)[C@H]3[C@@](O)(C(=O)OC)[C@H](OC(C)=O)[C@]5(CC)C=CCN6CC[C@]43[C@@H]65)C2)C1 [vinblastine]
vinblastine-induced apoptosis in D5 cells ([2]; 1 nM vinblastine, 48 h): resistant | apoptosis ([3]; 1 nM vinblastine, 48 h): about 30%

Z-VAD-fmk
effect on docetaxel-induced cell death ([3]; HGT-1, with docetaxel): suppress cell death

— patent publication US9216165B2, “Combination of a statin and a taxane for the treatment of gastric cancer” (INSERM (Institut National de la Sante et de la Recherche …, priority 2011, dated 2015)
